# Laboratory results taken from paper PMC8511391, “Optimization of Pichia pastoris Expression System for High-Level Production of Margatoxin” (Frontiers in Pharmacology, 2021).
# Bridge positions count the residues as written; N and C are the ends. Ends that are not written are not given here. Peptide text beside a SMILES is read from it.
# Assays:
# hKv1.2 [1] = molecular target: T1, hKv1.2 (Homo sapiens, UniProt P16389); experiment: Binding and unbinding kinetics (wash-in/washout, patch-clamp) on hKv1.2; details: for k on: Kv1.2, calculated from averaged τ on and τ off, 100 pM toxin; for τ on: hKv1.2, 100 pM toxin, wash-in; for τ on / τ off: ± SEM; for recovery from block on washout: hKv1.2, toxin-free solution after 100 pM; for τ off: hKv1.2, washout after 100 pM toxin
# T1 construct: GFP (from vector pCMV6-GFP); host or cells: CHO cells, transient transfection with Lipofectamine 2000
# T1 sequence (P16389 whole entry): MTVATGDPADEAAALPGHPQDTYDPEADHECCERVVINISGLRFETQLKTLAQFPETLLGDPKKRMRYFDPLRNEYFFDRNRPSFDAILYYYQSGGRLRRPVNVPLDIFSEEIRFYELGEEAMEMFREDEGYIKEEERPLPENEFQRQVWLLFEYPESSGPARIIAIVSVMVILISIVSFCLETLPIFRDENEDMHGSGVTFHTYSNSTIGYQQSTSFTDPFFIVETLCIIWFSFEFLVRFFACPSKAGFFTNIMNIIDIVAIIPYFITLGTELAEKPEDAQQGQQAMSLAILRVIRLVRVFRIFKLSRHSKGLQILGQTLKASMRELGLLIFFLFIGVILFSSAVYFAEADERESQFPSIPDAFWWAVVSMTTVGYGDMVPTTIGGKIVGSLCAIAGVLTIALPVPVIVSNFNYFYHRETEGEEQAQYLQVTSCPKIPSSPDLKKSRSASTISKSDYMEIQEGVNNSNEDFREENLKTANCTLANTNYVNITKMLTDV
# Description: CHO cells were transiently transfected with the vector pCMV6-GFP (OriGene Technologies, Germany) encoding the human Kv1.2 ion channel using Lipofectamine 2000 (Invitrogen, Carlsbad, CA), following the manufacturer's protocol, and grown under the standard conditions as used previously ([Bagdány et al., 2005]). GFP-positive transfectants were identified with Nikon TE 2000U fluorescence microscope (Nikon, Tokyo, Japan), and currents were recorded after 24 h post transfection.
# (§1) Electrophysiological measurements were performed by using the patch-clamp technique in whole-cell or outside-out patch configuration and voltage clamp mode using the Multiclamp 700B amplifier and Axon Digidata1440 digitizer (Molecular Devices, Sunnyvale, CA). Micropipettes were pulled from GC150F-15 borosilicate capillaries (Harvard Apparatus Kent, United Kingdom), resulting in 3–5 MΩ resistance in the bath solution. The extracellular solution contained 145 mM NaCl, 5 mM KCl, 1 mM MgCl2, 2.5 mM CaCl2, 5.5 mM glucose, and 10 mM HEPES, with a pH of 7.35 and an osmolarity between 302 and 308 mOsM/L. When the toxins were dissolved at different molar concentrations in bath solution, it was supplemented with 0.1 mg/ml of BSA. The pipette filling (intracellular) solution consisted of 140 mM KF, 2 mM MgCl2, 1 mM CaCl2, 10 mM HEPES, and 11 mM EGTA, with a pH of 7.22 and an osmolarity of 295 mOsM/L.
# (§2) To record the hKv1.3 and hKv1.2 currents, 15- to 200-ms-long depolarization impulses were applied at +50 mV from a holding potential of −120 mV every 15 s. The pClamp 10.1 software package was used to acquire and analyze the measured data. Current traces were low-pass filtered by the analog four-pole Bessel filters of the amplifiers, and the sampling frequency was set at 20 kHz, at least twice that of the filter cutoff frequency. The effect of the toxin at a given molar concentration was calculated as the remaining current fraction (RCF = I/I0, where I0 is the peak current in the absence of the toxin and I is the peak current at equilibrium block at a given toxin concentration). The data points on dose–response curves represent the mean of 3–4 individual measurements. The data points were fitted with a three-parameter [inhibition] vs response model, RCF = Bottom + [Top–Bottom)/(1+([toxin]/K d )], where Top and Bottom values were constrained to 1 and 0, respectively, and [toxin] is the concentration of the toxin. The best fit curve gave K d of the given toxin.
# (§3) To examine the effect of additional residues of TrMgTx on binding to the ion channel, the association and dissociation rate constants of both the versions of the toxin were determined for the Kv1.3 channel of the activated human T lymphocytes and the hKv1.2 channel transiently expressed in the CHO cell. Whole-cell currents were recorded after applying the toxin (200 pM for Kv1.3 and 100 pM for Kv1.2) to the extracellular solution until the equilibrium block was achieved (wash-in), and then removed it by perfusing the toxin-free control solution (washout). Peak currents at a time point t [I(t)] were normalized to the peak current in the absence of the toxin [Inorm(t) = I(t)/I0], and these were plotted as a function of time. The association time constant (τ on ) was determined by fitting the data points during the wash-in procedure in the one-phase decay equation: Inorm(t)=((1−RCF)×e^−t/τon)+RCF , with the RCF = I/I0 at the equilibrium block as defined in the Electrophysiology section. The dissociation time constant (τ off ) was determined by fitting the following equation to the data points during the washout procedure: Inorm(t)=RCF+(1−e^−t/τoff).
# (§4) The association rate constant (k on ) and dissociation rate constant (k off ) were calculated from the measured time constants, assuming a simple bimolecular interaction between the channel and toxin, and by using the following equations ([Peter et al., 2001]), with τon and τoff defined above, and [toxin] as the toxin concentration: kon=1−(τon×koff)/τon×[toxin], koff=1/τoff.
# hKv1.3 [2] = molecular target: T2, hKv1.3 (Homo sapiens, UniProt P22001); experiment: Binding and unbinding kinetics (wash-in/washout, patch-clamp) on hKv1.3; details: for koff: Kv1.3, calculated from averaged τ off; for koff / k on: 3-5 independent experiments; for k on: Kv1.3, calculated from averaged τ on and τ off, 200 pM toxin; for τ on: hKv1.3, 200 pM toxin, wash-in, single exponential; for τ on / τ off: n = 4, ± SEM; for τ off: hKv1.3, washout after 200 pM toxin
# T2 construct: endogenous in cells
# T2 sequence (P22001 whole entry): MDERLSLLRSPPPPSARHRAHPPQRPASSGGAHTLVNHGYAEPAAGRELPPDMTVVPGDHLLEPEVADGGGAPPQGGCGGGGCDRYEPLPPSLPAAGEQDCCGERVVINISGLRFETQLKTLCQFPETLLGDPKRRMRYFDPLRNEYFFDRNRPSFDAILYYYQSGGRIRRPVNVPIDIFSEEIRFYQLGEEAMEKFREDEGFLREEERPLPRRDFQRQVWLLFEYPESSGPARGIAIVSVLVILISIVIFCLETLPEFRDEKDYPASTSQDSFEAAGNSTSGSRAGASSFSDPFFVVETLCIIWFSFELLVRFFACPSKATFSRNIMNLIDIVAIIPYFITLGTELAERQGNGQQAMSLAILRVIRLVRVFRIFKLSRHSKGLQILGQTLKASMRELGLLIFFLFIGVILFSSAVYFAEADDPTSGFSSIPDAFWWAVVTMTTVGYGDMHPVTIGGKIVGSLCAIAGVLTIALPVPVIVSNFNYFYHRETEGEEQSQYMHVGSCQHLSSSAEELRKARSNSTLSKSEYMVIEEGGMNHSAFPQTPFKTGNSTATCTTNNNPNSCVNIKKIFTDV
# Description: as §1, §2, §3, §4
# [3] = test system: CD40L expression in CD4^+ TEM cells; experiment: CD40L (CD154) expression in anti-CD3-stimulated CD4+ TEM lymphocytes (flow cytometry); format: cell-based, human; details: for CD40L expression of stimulated, treated cells vs unstimulated cells: TrMgTx 8.5 nM or UrMgTx 5 nM; for CD40L expression of stimulated, treated cells vs unstimulated cells / effect on upregulation of CD40L expression: 24 h; for inhibition of CD40L expression: 24 h anti-CD3 stimulation, three donors, technical duplicates, MFI normalized to stimulated; for effect on upregulation of CD40L expression: ∼100× K d (TrMgTx 8.5 nM, UrMgTx 5 nM), anti-CD3
# Source text: (§5) The mononuclear cells were isolated from anonymized healthy donors as described earlier. Prior to CD4^+ TEM cells separation, dead cells were removed using the Dead Cell Removal Microbead Kit (Miltenyi Biotec B.V & CO. KG, Bergisch Gladbach, Germany). Untouched CD4^+ TEM lymphocytes were purified through magnetic cell sorting (negative selection) with the CD4^+ Effector Memory T Cell Isolation Kit (Miltenyi Biotec B.V. & Co. KG, Bergisch Gladbach, Germany) according to the manufacturer's protocol.
# (§6) For TCR-specific stimulation, anti-human CD3 monoclonal antibodies (clone OKT3, BioLegend, San Diego, CA) were bound to the surface of 24-well cell culture plates at a density of 5 µg/well in phosphate-buffered saline (PBS) overnight at 4°C. Before seeding the cells, the wells were washed twice with PBS to remove the unbound antibodies. The CD4^+ TEM cells were divided into four groups: 1) unstimulated, 2) stimulated, 3) stimulated + TrMgTx (8.5 nM), and 4) stimulated + UrMgTx (5 nM). The cells were seeded at a density of 0.5×10^6 cells/ml per well, and when indicated, the cells were preincubated with the toxins for 5 min prior to the stimulation. The plate was incubated at 37°C in 5% CO2 for 24 h. Each experiment was performed in technical duplicates on three different donors.
# (§7) For quantifying the extent of TEM cell stimulation, cells were washed with PBS buffer containing 1% of fetal bovine serum (FBS) and stained with fluorescein isothiocyanate (FITC)–labeled anti-human CD154 (CD40L) antibody (clones 24–31, BioLegend, San Diego, CA) and PerCP/Cyanine5.5–labeled anti-human CD25 (IL2R) antibody (clone BC96, BioLegend) at 4°C for 20 min. Cells were washed with the PBS + 1% FBS buffer and resuspended in 150 µl in PBS + 1% FBS. Samples were measured with NovoCyte 3000 RYB flow cytometer (ACEA Bioscience Inc.), FITC and PerCP/Cyanine5.5 were excited by using blue laser (488 nm), and 530/30 nm and 695/40 nm emission filters were used, respectively. Flow cytometry data were analyzed using FCS Express 6.0 (De Novo Software, Glendale, CA). Briefly, cells were gated on the basis of their FSC and SSC parameters, and then, the histograms corresponding to CD40L and CD25 were plotted as peak-normalized overlays. Mean fluorescent intensities (MFIs) were computed from the histograms and normalized to that of their stimulated (S) but not treated control. The negative (unlabeled) and unstimulated control (US) were always used for comparison.
# [4] = test system: IL2R (CD25) expression in CD4^+ TEM cells; experiment: IL2R (CD25) expression in anti-CD3-stimulated CD4+ TEM lymphocytes (flow cytometry); format: cell-based, human; details: for inhibition of IL2R expression: 24 h anti-CD3 stimulation, three donors, technical duplicates, MFI normalized to stimulated; for effect on upregulation of IL2R expression: ∼100× K d (TrMgTx 8.5 nM, UrMgTx 5 nM), 24 h, anti-CD3
# Source text: as §5, §6, §7
# hKv1.2 [5] = molecular target: T1, hKv1.2; experiment: Patch-clamp block of hKv1.2 current (dose-response / equilibrium block) in transfected CHO cells; format: cell-based; details: for block of whole-cell current at equilibrium: 100 pM toxin, hKv1.2, CHO cells
# Description: (§8) Electrophysiological measurements were performed by using the patch-clamp technique in whole-cell or outside-out patch configuration and voltage clamp mode using the Multiclamp 700B amplifier and Axon Digidata1440 digitizer (Molecular Devices, Sunnyvale, CA). Micropipettes were pulled from GC150F-15 borosilicate capillaries (Harvard Apparatus Kent, United Kingdom), resulting in 3–5 MΩ resistance in the bath solution. The extracellular solution contained 145 mM NaCl, 5 mM KCl, 1 mM MgCl2, 2.5 mM CaCl2, 5.5 mM glucose, and 10 mM HEPES, with a pH of 7.35 and an osmolarity between 302 and 308 mOsM/L. When the toxins were dissolved at different molar concentrations in bath solution, it was supplemented with 0.1 mg/ml of BSA. The pipette filling (intracellular) solution consisted of 140 mM KF, 2 mM MgCl2, 1 mM CaCl2, 10 mM HEPES, and 11 mM EGTA, with a pH of 7.22 and an osmolarity of 295 mOsM/L.
# Pharmacological activity of both versions of rMgTx was evaluated by studying their effect on the hKv1.2 and hKv1.3 ion channels. […] A custom-built perfusion system was used to apply toxins at a very small perfusion rate of 200 µl/min. […]
# hKv1.3 [6] = molecular target: T2, hKv1.3; format: cell-based; details: for inhibition of whole-cell current at block equilibrium: 200 pM toxin, hKv1.3
# Description: The human venous blood from anonymized healthy donors was obtained from a blood bank. The peripheral blood mononuclear cells were isolated through Histopaque1077 (Sigma-Aldrich Hungary, Budapest, Hungary) density gradient centrifugation. Cells obtained were resuspended in RPMI 1640 medium containing 10% fetal calf serum (Sigma-Aldrich), 100 µg/ml penicillin, 100 µg/ml streptomycin, and 2 mM L glutamine, seeded in a 24-well culture plate at a density of 5 x 10^5 cells per ml, and grown in a 5% CO2 incubator at 37°C for 2–5 days. Phytohemagglutinin A (Sigma-Aldrich) was added in 5, 7, and 10 µg/ml concentrations to the medium to boost the potassium ion channel expression.
# as §8
# To record the hKv1.3 and hKv1.2 currents, 15- to 200-ms-long depolarization impulses were applied at +50 mV from a holding potential of −120 mV every 15 s. The pClamp 10.1 software package was used to acquire and analyze the measured data. Current traces were low-pass filtered by the analog four-pole Bessel filters of the amplifiers, and the sampling frequency was set at 20 kHz, at least twice that of the filter cutoff frequency. The effect of the toxin at a given molar concentration was calculated as the remaining current fraction (RCF = I/I0, where I0 is the peak current in the absence of the toxin and I is the peak current at equilibrium block at a given toxin concentration). The data points on dose–response curves represent the mean of 3–4 individual measurements. […]
# Pharmacological activity of both versions of rMgTx was evaluated by studying their effect on the hKv1.2 and hKv1.3 ion channels. The hKv1.2 current was recorded in CHO cells, which heterologously expressed the hKv1.2 ion channel, and hKv1.3 current was recorded in the human peripheral blood lymphocytes. […]
# Kv1.3 = details: cited from earlier work
# Description: Voltage-gated potassium (Kv) channels are present in a variety of cells and tissues where they regulate multiple physiological processes, including cardiac function, neural excitability, muscle contraction, cell proliferation, cell volume control, and hormonal secretion ([Coetzee et al., 1999]; [Giangiacomo et al., 2004]). […] Previous studies report the production of recombinant MgTx (rMgTx) in E. coli and P. ... || Pharmacological activity of both versions of rMgTx was evaluated by studying their effect on the hKv1.2 and hKv1.3 ion channels. The hKv1.2 current was recorded in CHO cells, which heterologously expressed the hKv1.2 ion channel, and hKv1.3 current was recorded in the human peripheral blood lymphocytes. The stimulation of the hKv1.3 channel expression (activation of isolated mononuclear cells by PHA, see the Materials and Methods section) and recording conditions (no Ca^2+ in the pipette to elicit Ca^2+-activated K^+ channels) guaranteed that the current recorded in these cells is K^+ current ... || (+ 2 further places)
compound,measurement,setting,value
"CC[C@H](C)[C@H](NC(=O)[C@@H](N)[C@@H](C)O)C(=O)N[C@H](C(=O)N[C@@H](CC(N)=O)C(=O)N[C@H](C(=O)N[C@@H](CCCCN)C(=O)N[C@H]1CSSC[C@@H]2NC(=O)[C@H](CCCCN)NC(=O)[C@H](C)NC(=O)CNC(=O)[C@H](C)NC(=O)[C@H](CO)NC(=O)[C@H](CCC(N)=O)NC(=O)CNC(=O)[C@H](Cc3ccccc3)NC(=O)[C@H](CCC(N)=O)NC(=O)[C@H](C)NC(=O)[C@H](CCCCN)NC(=O)[C@@H]3CSSC[C@@H](C(=O)N[C@@H](Cc4ccc(O)cc4)C(=O)N4CCC[C@H]4C(=O)N[C@@H](Cc4c[nH]cn4)C(=O)O)NC(=O)[C@H](CCCCN)NC(=O)[C@H](CSSC[C@H](NC(=O)[C@H](CCC(N)=O)NC(=O)[C@H](CCCCN)NC(=O)[C@@H]4CCCN4C(=O)[C@H](CO)NC(=O)[C@H]([C@@H](C)O)NC1=O)C(=O)N[C@@H](CC(C)C)C(=O)N1CCC[C@H]1C(=O)N1CCC[C@H]1C(=O)N3)NC(=O)[C@H](CCCCN)NC(=O)CNC(=O)[C@H](CC(N)=O)NC(=O)[C@H](CCSC)NC2=O)C(C)C)[C@@H](C)CC [UrMgTx] (H-TIINVKCTSPKQCLPPCKAQFGQSAGAKCMNGKCKCYPH-OH; disulfide 7-29, 13-34, 17-36; N-terminus and C-terminus assumed)",k on,hKv1.2 [1]; 3-5 independent experiments,4.62e+07 M⁻¹ s⁻¹
same,τ on,hKv1.2 [1],191 ± 12 s
same,recovery from block on washout,hKv1.2 [1],slow and partial recovery
same,k off compared with TrMgTx,"hKv1.2 [1]; hKv1.2, unpaired t test, n = 3-4, p < 0.001",substantially lower
same,k on compared with TrMgTx,"hKv1.2 [1]; hKv1.2, unpaired t test, n = 3-4, p < 0.01",slightly higher
same,τ off,hKv1.2 [1],1308 ± 351 s
same,koff,hKv1.3 [2],0.00179 s⁻¹
same,k on,hKv1.3 [2],3.43e+07 M⁻¹ s⁻¹
same,τ on,hKv1.3 [2],116 ± 10 s
same,k on compared with TrMgTx,"hKv1.3 [2]; hKv1.3, unpaired t test, n = 4, p < 0.001",significantly higher
same,τ off,hKv1.3 [2],560 ± 28 s
same,"CD40L expression of stimulated, treated cells vs unstimulated cells",[3],comparable to that of unstimulated cells
same,inhibition of CD40L expression,[3]; UrMgTx 5 nM,~45%
same,effect on upregulation of CD40L expression,[3],significantly reduced
same,inhibition of IL2R expression,[4]; UrMgTx 5 nM,~45%
same,effect on upregulation of IL2R expression,[4],significantly reduced
same,block of whole-cell current at equilibrium,hKv1.2 [5],~90%
same,inhibition of whole-cell current at block equilibrium,hKv1.3 [6],~80%
"EFHHHHHHLQIEGRTIINVKCTSPKQCLPPCKAQFGQSAGAKCMNGKCKCYPH (disulfide 21-43, 27-48, 31-50) [TrMgTx]",koff,"hKv1.2 [1]; Kv1.2, calculated from averaged τ off, 3-5 independent experiments",0.0019 s⁻¹
same,k on,hKv1.2 [1]; 3-5 independent experiments,3.05e+07 M⁻¹ s⁻¹
same,"association rate, fold lower than UrMgTx",hKv1.2 [1]; hKv1.2,~1.6 fold
same,τ on,hKv1.2 [1],202 ± 2.3 s
same,recovery from block on washout,hKv1.2 [1],slow but full recovery
same,τ off,hKv1.2 [1],532 ± 69 s
same,koff,hKv1.3 [2],0.00179 s⁻¹
same,k on,hKv1.3 [2],2.14e+07 M⁻¹ s⁻¹
same,"association rate, fold lower than UrMgTx",hKv1.3 [2]; hKv1.3,~1.6 fold
same,τ on,hKv1.3 [2],168 ± 19 s
same,τ off,hKv1.3 [2],568 ± 84 s
same,"CD40L expression of stimulated, treated cells vs unstimulated cells",[3],comparable to that of unstimulated cells
same,inhibition of CD40L expression,[3]; TrMgTx 8.5 nM,~36%
same,effect on upregulation of CD40L expression,[3],significantly reduced
same,inhibition of IL2R expression,[4]; TrMgTx 8.5 nM,~39%
same,effect on upregulation of IL2R expression,[4],significantly reduced
same,block of whole-cell current at equilibrium,hKv1.2 [5],about 60%
same,potency relative to UrMgTx,"hKv1.2 [5]; hKv1.2, dose-response",nearly fivefold less potent
same,inhibition of whole-cell current at block equilibrium,hKv1.3 [6],~70%
same,potency relative to UrMgTx,"hKv1.3 [6]; hKv1.3, dose-response",slightly less potent
charybdotoxin [reference compound],"reduction in peak current, positive control","hKv1.2 [5]; 14 nM charybdotoxin, hKv1.2, data not shown",Around 50%
"CC[N+](CC)(CC)CC [tetraethylammonium, reference compound]",Kd,Kv1.3,10 mM
same,"reduction in peak current, positive control",hKv1.3 [6],Around 50%
